Laboratory results reported in patent US20110028566A1, “COMPOSITIONS AND PRODUCTS CONTAINING CYCLOALIPHATIC DIOL ANTIMICROBIAL AGENTS AND METHODS OF USING THE COMPOSITIONS AND PRODUCTS” (EASTMAN CHEMICAL COMPANY, priority 2009, published 2011).

Columns and labels:
Assay in all cases: Microbial challenge testing in BPW
Assay type in all cases: cell-based
[1] = tested on: Burkholderia cepacia
Procedure: (§1) The microorganisms used in challenge tests are given in Table 3, designated as either ATCC (American Type Culture Collection) or wild type. These wild type organisms were problematic organisms previously isolated from chemical products. In the description for each organism, the bacteria are indicated as either GN (Gram negative) or GP (Gram positive).
(§2) All of the microorganisms were grown in Tryptose Soy Broth (TSB), DIFCO™ available from Becton, Dickinson and Company, containing 1% dextrose. Aspergillus niger and Candida albicans were incubated at 22° C.±2° C. for at least 96 hours. All bacteria were incubated at 35° C.±2° C. in a humidified incubator for at least 96 hours.
(§3) The following procedure was followed to determine the amount of each challenge material (inoculum broth) required to produce a 10^8 cfu/mL challenge, which is equivalent to a final test-sample microbial concentration of 10^5 to 10^6 cfu (colony-forming units)/mL.
(§4) Using a sterile serological pipette, 1 mL of the growth from each TSB culture was transferred into tubes containing 9 mL phosphate buffer (pH 7.2) and mixed thoroughly. This process was repeated to make serial 1:10 dilutions. Then 0.1 mL of each sample and dilution was inoculated onto agar plates to produce the equivalent of a further 1:10 dilution. C. albicans and A. niger were inoculated onto SDA and bacteria were inoculated onto Plate Count Agar (PCA), DIFCO™ available from Becton, Dickinson and Company. The 0.1 mL aliquots were evenly distributed on the plates using the spread-plate technique. The spread-plate technique is performed by spreading the aliquot over the entire plate surface using a sterile spreading rod while rotating the plate with a rotary auto-plater. After the inoculum was absorbed completely, each plate was inverted and incubated (fungi at 22° C.±2° C. and bacteria at 35° C.±2° C.).
(§5) After incubation for at least 48 hours, colonies that had developed on the agar plates were counted and recorded with the corresponding dilution. If counting had to be delayed temporarily, plates were refrigerated, preferably no more than 24 hours, until they could be counted. The number of cfu/mL was determined by multiplying the count by the dilution factor for that particular plate.
(§6) Turbidity in Nepholemetric Turbidity Units (NTU) was measured for each serial dilution using the HF-Micro 100 Model Turbidimeter. For each microorganism, the plate counts were compared to the turbidity readings.
(§7) Control substrates (“broth alone”) were prepared for each microorganism separately in triplicate by adding 13.5 mL of BPW (pH 7.0) containing 1% (w/v) dextrose to each 20-mL glass tube; then adding 1.5 mL challenge material to produce a final concentration at time zero of 10^5 to 10^6 cfu/mL and a total volume of 15 mL.
(§8) Test sample substrates were prepared containing each test material (1,4-CHDM, etc) or combination of test materials at the concentrations shown in Tables 5 and 6. Sample substrates were prepared in triplicate, except those substrates containing PE or CG which were prepared in duplicate. Substrates were prepared by adding BPW containing 1% (w/v) dextrose to each 20-mL glass tube, then adding the test material in the amount appropriate to achieve the desired weight/volume percent (g/100 mL) and to obtain a total volume of BPW with dextrose and test material of 13.5 mL. Then 1.5 mL challenge material was added to produce a final concentration at time zero of 10^5 to 10^6 cfu/mL of the respective organism and a total test sample substrate volume of 15 mL.
(§9) After mixing, all challenged substrates were incubated at 35° C.±2° C. for 14 days and then at ambient room temperature.

[2] = tested on: Pseudomonas aeruginosa
Procedure: as §1, §2, §3, §4, §5, §6, §7, §8, §9

[3] = tested on: Streptococcus mutans
Procedure: as §1, §2, §3, §4, §5, §6, §7, §8, §9

[4] = tested on: Staphylococcus aureus
Procedure: as §1, §2, §3, §4, §5, §6, §7, §8, §9

[5] = tested on: Proteus vulgaris
Procedure: as §1, §2, §3, §4, §5, §6, §7, §8, §9

Q: What does the source list for CC1(C)C(O)C(C)(C)C1O (centres unmarked) [TMCD, 2,2,4,4-tetramethyl-1,3-cyclobutanediol]?
A: Grade code B. cepacia ([1]; 1.25%, 14 days incubation): 2 (52 to 100 colonies counted (thus 520 to 1000 cfu/mL)); Grade code B. cepacia ([1]; 1.25%, 30 days incubation): 4 (1001 to 10,000 colonies (thus 10,000 cfu/mL to 100,000 cfu/mL)); Grade code B. cepacia ([1]; 2.5%, 3 days incubation): 1 (1 to 51 colonies counted (thus 10 to 510 cfu/mL)); Grade code B. cepacia ([1]; 2.5%, 14 days incubation): 0 (No growth detected or <1 colony (thus <10 cfu/mL)); Grade code B. cepacia ([1]; 2.5%, 30 days incubation): 0 (No growth detected or <1 colony (thus <10 cfu/mL)); Grade code P. aeruginosa ([2]; 0.5%, 3 days incubation): 4 (1001 to 10,000 colonies (thus 10,000 cfu/mL to 100,000 cfu/mL)); Grade code P. aeruginosa ([2]; 0.5%, 13 days incubation): 4 (1001 to 10,000 colonies (thus 10,000 cfu/mL to 100,000 cfu/mL)); Grade code P. aeruginosa ([2]; 0.5%, 30 days incubation): 4 (1001 to 10,000 colonies (thus 10,000 cfu/mL to 100,000 cfu/mL)); Grade code P. aeruginosa ([2]; 1.25%, 3 days incubation): 4 (1001 to 10,000 colonies (thus 10,000 cfu/mL to 100,000 cfu/mL)); Grade code P. aeruginosa ([2]; 1.25%, 13 days incubation): 4 (1001 to 10,000 colonies (thus 10,000 cfu/mL to 100,000 cfu/mL)); Grade code P. aeruginosa ([2]; 1.25%, 30 days incubation): 4 (1001 to 10,000 colonies (thus 10,000 cfu/mL to 100,000 cfu/mL)); Grade code P. aeruginosa ([2]; 2.5%, 3 days incubation): 4 (1001 to 10,000 colonies (thus 10,000 cfu/mL to 100,000 cfu/mL)); Grade code P. aeruginosa ([2]; 2.5%, 13 days incubation): 3 (101 to 1000 colonies (thus 1000 to 10,000 cfu/mL)); Grade code P. aeruginosa ([2]; 2.5%, 30 days incubation): 4 (1001 to 10,000 colonies (thus 10,000 cfu/mL to 100,000 cfu/mL)); Grade code S. mutans ([3]; 0.5%, 3 days incubation): 4 (1001 to 10,000 colonies (thus 10,000 cfu/mL to 100,000 cfu/mL)); Grade code S. mutans ([3]; 0.5%, 13 days incubation): 4 (1001 to 10,000 colonies (thus 10,000 cfu/mL to 100,000 cfu/mL)); Grade code S. mutans ([3]; 0.5%, 30 days incubation): 4 (1001 to 10,000 colonies (thus 10,000 cfu/mL to 100,000 cfu/mL)); Grade code S. mutans ([3]; 1.25%, 3 days incubation): 4 (1001 to 10,000 colonies (thus 10,000 cfu/mL to 100,000 cfu/mL)); Grade code S. mutans ([3]; 1.25%, 13 days incubation): 4 (1001 to 10,000 colonies (thus 10,000 cfu/mL to 100,000 cfu/mL)); Grade code S. mutans ([3]; 1.25%, 30 days incubation): 4 (1001 to 10,000 colonies (thus 10,000 cfu/mL to 100,000 cfu/mL)); Grade code S. mutans ([3]; 2.5%, 3 days incubation): 3 (101 to 1000 colonies (thus 1000 to 10,000 cfu/mL)); Grade code S. mutans ([3]; 2.5%, 13 days incubation): 1 (1 to 51 colonies counted (thus 10 to 510 cfu/mL)); Grade code S. mutans ([3]; 2.5%, 30 days incubation): 0 (No growth detected or <1 colony (thus <10 cfu/mL)); Grade code S. aureus ([4]; 0.5%, 3 days incubation): 4 (1001 to 10,000 colonies (thus 10,000 cfu/mL to 100,000 cfu/mL)); Grade code S. aureus ([4]; 0.5%, 14 days incubation): 4 (1001 to 10,000 colonies (thus 10,000 cfu/mL to 100,000 cfu/mL)); Grade code S. aureus ([4]; 0.5%, 30 days incubation): 4 (1001 to 10,000 colonies (thus 10,000 cfu/mL to 100,000 cfu/mL)); Grade code S. aureus ([4]; 1.25%, 3 days incubation): 4 (1001 to 10,000 colonies (thus 10,000 cfu/mL to 100,000 cfu/mL)); Grade code S. aureus ([4]; 1.25%, 14 days incubation): 4 (1001 to 10,000 colonies (thus 10,000 cfu/mL to 100,000 cfu/mL)); Grade code S. aureus ([4]; 1.25%, 30 days incubation): 4 (1001 to 10,000 colonies (thus 10,000 cfu/mL to 100,000 cfu/mL)); Grade code S. aureus ([4]; 2.5%, 3 days incubation): 2 (52 to 100 colonies counted (thus 520 to 1000 cfu/mL)); Grade code S. aureus ([4]; 2.5%, 14 days incubation): 1 (1 to 51 colonies counted (thus 10 to 510 cfu/mL)); Grade code S. aureus ([4]; 2.5%, 30 days incubation): 1 (1 to 51 colonies counted (thus 10 to 510 cfu/mL)); Grade code P. vulqaris ([5]; 0.5%, 3 days incubation): 4 (1001 to 10,000 colonies (thus 10,000 cfu/mL to 100,000 cfu/mL)); Grade code P. vulqaris ([5]; 0.5%, 13 days incubation): 4 (1001 to 10,000 colonies (thus 10,000 cfu/mL to 100,000 cfu/mL)); Grade code P. vulqaris ([5]; 0.5%, 30 days incubation): 4 (1001 to 10,000 colonies (thus 10,000 cfu/mL to 100,000 cfu/mL)); Grade code P. vulqaris ([5]; 1.25%, 3 days incubation): 3 (101 to 1000 colonies (thus 1000 to 10,000 cfu/mL)); Grade code P. vulqaris ([5]; 1.25%, 13 days incubation): 2 (52 to 100 colonies counted (thus 520 to 1000 cfu/mL)); Grade code P. vulqaris ([5]; 1.25%, 30 days incubation): 0 (No growth detected or <1 colony (thus <10 cfu/mL)); Grade code P. vulqaris ([5]; 2.5%, 3 days incubation): 4 (1001 to 10,000 colonies (thus 10,000 cfu/mL to 100,000 cfu/mL)); Grade code P. vulqaris ([5]; 2.5%, 13 days incubation): 1 (1 to 51 colonies counted (thus 10 to 510 cfu/mL)); Grade code P. vulqaris ([5]; 2.5%, 30 days incubation): 0 (No growth detected or <1 colony (thus <10 cfu/mL))
